Measured values reported in US20190111026A1, “ANTI-TRITRICHOMONAS AGENT” (Pola Pharma Inc., priority 2016, published 2019).
In brackets after ≈: the same amount, converted by molar mass.

Tests used:
[1] = system: Tritrichomonas mobilensis; assay: Anti-Tritrichomonas activity of solid ground luliconazole (viable count, growth inhibition rate); assay type: cell-based; settings: 35° C., 24 hours; for Viable Cell Count Ave.: 5 mg solid in 5 mL Diamond's medium with 10% adult bovine serum, 10,000 cells inoculated; for Growth Inhibition Rate: 5 mg solid in 5 mL medium, 10,000 cells, [(control-sample)/control]×100
Procedure: It is noted that the growth inhibition rate is calculated as follows: [(the number of viable cells of the control group−the number of viable cells of the sample group)/the number of viable cells of the control group]×100. It is preferred that the anti-Tritrichomonas effect is determined 24 to 72 hours after the inoculation of 10,000 cells of Tritrichomonas protozoa on 5 mL of liquid medium in which 5 mg of sample luliconazole is added. As the liquid medium, it is preferred to use Diamond's medium with 5% to 15% adult bovine serum added as desired.
(§1) Luliconazole was ground with a mortar to change the particle size, and the anti-Tritrichomonas activity of solid luliconazole was studied. More specifically, luliconazole having a variety of particle sizes was added in an amount of 5 mg to 5 mL of Diamond's media supplemented with 10% adult bovine serum, and 10,000 cells of Tritrichomonas mobilensis were inoculated on the media, cultured at 35° C. for 24 hours, and then measured for the number of viable T. mobilensis cells by use of a Neubauer hemocytometer. Luliconazole was not added to the control group. The growth inhibition rate was calculated as follows: [(the number of viable cells of the control group−the number of viable cells of the sample group)/the number of viable cells of the control group]×100. […] It is noted that the particle size was measured by a laser diffraction method (Microtrac MT3000, manufactured by NIKKISO CO., LTD; dispersion medium: water).

[2] = system: Tritrichomonas mobilensis; assay: Anti-Tritrichomonas effect of supernatant from medium stored with ground luliconazole; assay type: cell-based; settings: supernatant of medium stored with 5 mg ground luliconazole at 35° C. for 24 hours
Procedure: In order to confirm the influence of luliconazole which was eluted in the solutions in Example 2, 7 minute-ground luliconazole was added in an amount of 5 mg to Diamond's medium with 10% adult bovine serum added, and stored at 35° C. for 24 hours, and the supernatant was obtained from the Diamond's medium. Tritrichomonas mobilensis was inoculated on the supernatant, cultured at 35° C. for 24 hours and measured for the number of viable cells by use of a Neubauer hemocytometer. Luliconazole was not added to the control group. The result from the control group was 973,333±23,094 while the result from the supernatant was 1,000,000±144,222. […] In this regard as well, it is clear that luliconazole can control effectively Tritrichomonas protozoa in the intestinal tract.

[3] = Particle size by laser diffraction method (Microtrac MT3000); assay type: physicochemical; settings: dispersion medium: water
Procedure: as §1

[4] = system: Tritrichomonas mobilensis (T. mobilensis: USA: M776 c12); assay: Activity of luliconazole in solution against Tritrichomonas mobilensis (viable count, Neubauer hemocytometer); assay type: cell-based; settings: luliconazole dissolved in methanol, Diamond's medium with 10% adult bovine serum, 35° C., 24 hours
Procedure: The activity of luliconazole against Tritrichomonas mobilensis of the genus Tritrichomonas (T. mobilensis: USA: M776 c12) was studied. Luliconazole as synthesized according to the method disclosed in the above JP 60-218387 A was used as a sample. More specifically, Tritrichomonas protozoa were cultured on Diamond's medium with 10% adult bovine serum added. Luliconazole was dissolved in 100 μL of methanol to obtain solutions having a variety concentrations of luliconazole. The cultures were then inoculated on 5 mL of 10% adult bovine serum-added Diamond's media in which the solutions were added, cultured at 35° C. for 24 hours, and then measured for the number of viable Tritrichomonas protozoa by use of a Neubauer hemocytometer. MIC and IC50 were obtained from the number of viable protozoa. MIC was 50 μg/mL and IC50 was 10. 1 μg/mL.

[5] = from Lulicon Cream Pharmaceutical Product Interview Form 2006; cited from earlier work

D50 [3] | IC50 [4] | MIC [4] | SMILES | Viable Cell Count Ave. [1] | Growth Inhibition Rate [1] | anti-Tritrichomonas effect of supernatant [2] | number of viable cells ([2]; culture 35° C., 24 hours, control 973,333±23,094) | solubility in water [5]
78.5 μm | – | – | N#C/C(=C1/SC[C@@H](c2ccc(Cl)cc2Cl)S1)n1ccnc1 [8-minute ground luliconazole, luliconazole] | 26,667 | 84.9 | – | – | –
96.6 μm | – | – | N#C/C(=C1/SC[C@@H](c2ccc(Cl)cc2Cl)S1)n1ccnc1 [6-minute ground luliconazole, luliconazole] | 20,000 | 88.7 | – | – | –
– | 10.1 µg/mL (≈ 28.5 µM) | 50 µg/mL (≈ 141 µM) | N#C/C(=C1/SC[C@@H](c2ccc(Cl)cc2Cl)S1)n1ccnc1 [Luliconazole, luliconazole] | – | – | – | – | insoluble in water

The next lines start with the compound.

SMILES | D50 [3] | IC50 [4] | MIC [4] | Viable Cell Count Ave. [1] | Growth Inhibition Rate [1] | anti-Tritrichomonas effect of supernatant [2] | number of viable cells ([2]; culture 35° C., 24 hours, control 973,333±23,094) | solubility in water [5]
N#C/C(=C1/SC[C@@H](c2ccc(Cl)cc2Cl)S1)n1ccnc1 [7-minute ground luliconazole, luliconazole] | 84.7 μm | – | – | 20,000 | 88.7 | did not have anti-Tritrichomonas effect | 1,000,000±144,222 | –
N#C/C(=C1/SC[C@@H](c2ccc(Cl)cc2Cl)S1)n1ccnc1 [5-minute ground luliconazole, luliconazole] | 114.4 μm | – | – | 43,333 | 75.5 | – | – | –
